Results as given in patent US11209411B2, “Methods for analyzing stability of an active pharmaceutical ingredient” (Purdue Research Foundation, priority 2018, dated 2021).

Tests used:
[1] = Traditional forced degradation in bulk solution, acid (HCl), nanospray MS; details: 450 μg/mL
From the text: (§1) Particularly, the degradation of three APIs in Leidenfrost droplets is exemplified, under conditions of constant volume achieved by adding make-up solvent automatically via a syringe pump during the levitation period. The data were compared with the degradation of the corresponding bulk material under similar conditions of solvent and temperature. In both droplet and bulk, degradation products are monitored by mass spectrometry and the ratio of products to reactants was used to infer the extent of reaction (Table 1).
(§2) Traditional forced degradation was performed by preparing a stock stress solution of hydrochloric acid or hydrogen peroxide, and a stock solution of the compound of interest (the API). Then the solutions were mixed and allowed to react at a set temperature for a set period of time (FIG. 1A). The composition of the final reaction mixture was analyzed by nanospray MS and the data for the bulk phase experiments are given in Table 1. Likewise, the Leidenfrost reaction mixture was made by the same method, then instead of letting the mixed solution age at a set temperature, it was dropped into a ceramic well which was placed on hot plate held at a temperature of 540° C. to form a much cooler Leidenfrost droplet (FIG. 1B). […] Here, both bulk and Leidenfrost products are analyzed by using nanospray MS.

[2] = Accelerated forced degradation in Leidenfrost droplets, acid (HCl), nanospray MS; type: physicochemical; details: 0.5M HCl, 90% propanol-10% H2O, without make-up solvent
Method: The data were compared with the degradation of the corresponding bulk material under similar conditions of solvent and temperature. In both droplet and bulk, degradation products are monitored by mass spectrometry and the ratio of products to reactants was used to infer the extent of reaction (Table 1).
as §2

[3] = Traditional forced degradation in bulk solution, oxidative (H2O2), nanospray MS; type: physicochemical; details: 45 μg/mL, 0.3% H2O2, 90% methanol-10% H2O
From the text: as §1, §2

[4] = Accelerated forced degradation in Leidenfrost droplets, oxidative (H2O2), nanospray MS; type: physicochemical; details: 0.3% H2O2, 90% methanol-10% H2O
From the text: as §1, §2

NS(=O)(=O)c1cc2c(cc1Cl)NCNS2(=O)=O [Hydrochlorothiazide (HCTZ), Hydrochlorothiazide]
Bulk Time ([1]; 0.5M HCl, 90% propanol-10% H2O, bulk 80° C., time to reach Set Ratio 2.5%): 3 h | Set Ratio (products to reactants, extent of degradation) ([1]; 3 h): 2.5%^ | Leidenfrost Time ([2]; 450 μg/mL, Leidenfrost droplet 80° C., time to reach Set Ratio 2.5%): 40 s | Accel. Factor ([2]; Leidenfrost droplet vs bulk, 80° C.): ~270

CN1CCN(CCCN2c3ccccc3Sc3ccc(C(F)(F)F)cc32)CC1 [Trifluoperazine (TFP), Trifluoperazine]
Set Ratio (products to reactants, extent of degradation) ([3]; 40° C., reached after 1.5 h in bulk, 180 s in Leidenfrost droplet): 3% | Bulk Time ([3]; bulk 40° C., time to reach Set Ratio 3%): 1.5 h^ | Leidenfrost Time ([4]; 45 μg/mL, Leidenfrost droplet 40° C., constant volume, time to reach Set Ratio 3%): 180 s | Accel. Factor ([4]; Leidenfrost droplet vs bulk, 40° C.): ~20
